Experimental data published in the supplement of paper PMC10307832.

Tests used:
Assay in all cases: relative viability (nuclei count vs DMSO), 5 days (fraction); higher = more cells survive
NCI-H1975 = system: NCI-H1975
Summary of the method: (§1)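 Each reported value is a median over duplicate plates. It expresses relative viability: treated-well nuclei count divided by vehicle-well nuclei count. Lung cancer cell lines in 1536-well plates were dosed by pin tool a day after seeding, alone with one drug or with a fixed anchor-drug dose plus five library-drug doses (not always all listed) in √10 steps, and nuclei were counted after 5 days.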

NCI-H23 = system: NCI-H23
Summary of the method: as §1

UMC-11 = system: UMC-11
Summary of the method: as §1

HOP-62 = system: HOP-62
Summary of the method: as §1

LU99A = system: LU99A
Summary of the method: as §1

NCI-H2405 = system: NCI-H2405
Summary of the method: as §1

NCI-H727 = system: NCI-H727
Summary of the method: as §1

EPLC-272H = system: EPLC-272H
Summary of the method: as §1

NCI-H838 = system: NCI-H838
Summary of the method: as §1

HCC-827 = system: HCC-827
Summary of the method: as §1

NCI-H520 = system: NCI-H520
Summary of the method: as §1

NCI-H647 = system: NCI-H647
Summary of the method: as §1

NCI-H596 = system: NCI-H596
Summary of the method: as §1

BEN = system: BEN
Summary of the method: as §1

NCI-H358 = system: NCI-H358
Summary of the method: as §1

NCI-H2170 = system: NCI-H2170
Summary of the method: as §1

NCI-H1355 = system: NCI-H1355
Summary of the method: as §1

NCI-H1792 = system: NCI-H1792
Summary of the method: as §1

PC-14 = system: PC-14
Summary of the method: as §1

NCI-H322M = system: NCI-H322M
Summary of the method: as §1

NCI-H3122 = system: NCI-H3122
Summary of the method: as §1

NCI-H1666 = system: NCI-H1666
Summary of the method: as §1

SMILES: O=c1[nH]c2ccccc2n1C1CCN(CCCC(c2ccc(F)cc2)c2ccc(F)cc2)CC1 [Pimozide] + CC(=O)Nc1cccc(-n2c(=O)n(C3CC3)c(=O)c3c(Nc4ccc(I)cc4F)n(C)c(=O)c(C)c32)c1 [Trametinib] (partner 0.02 µM)
- relative viability (NCI-H1975; first compound 0.08 µM): 0.273
- relative viability (NCI-H1975; first compound 0.253 µM): 0.405
- relative viability (NCI-H1975; first compound 0.8 µM): 0.363
- relative viability (NCI-H1975; first compound 2.53 µM): 0.353
- relative viability (NCI-H1975; first compound 8 µM): 0.227
- relative viability (NCI-H23; first compound 0.08 µM): 0.377
- relative viability (NCI-H23; first compound 0.253 µM): 0.369
- relative viability (NCI-H23; first compound 0.8 µM): 0.291
- relative viability (NCI-H23; first compound 2.53 µM): 0.369
- relative viability (NCI-H23; first compound 8 µM): 0.318
- relative viability (UMC-11; first compound 0.08 µM): 0.602
- relative viability (UMC-11; first compound 0.253 µM): 0.675
- relative viability (UMC-11; first compound 0.8 µM): 0.655
- relative viability (UMC-11; first compound 2.53 µM): 0.681
- relative viability (UMC-11; first compound 8 µM): 0.918
- relative viability (HOP-62; first compound 0.08 µM): 0.362
- relative viability (HOP-62; first compound 0.253 µM): 0.347
- relative viability (HOP-62; first compound 2.53 µM): 0.328
- relative viability (HOP-62; first compound 8 µM): 0.389
- relative viability (LU99A; first compound 0.08 µM): 0.66
- relative viability (LU99A; first compound 0.8 µM): 0.522
- relative viability (LU99A; first compound 2.53 µM): 0.48
- relative viability (LU99A; first compound 8 µM): 0.524
- relative viability (NCI-H2405; first compound 0.08 µM): 0.606
- relative viability (NCI-H2405; first compound 0.253 µM): 0.65
- relative viability (NCI-H2405; first compound 0.8 µM): 0.621
- relative viability (NCI-H2405; first compound 2.53 µM): 0.491
- relative viability (NCI-H2405; first compound 8 µM): 0.36
- relative viability (NCI-H727; first compound 0.08 µM): 0.396
- relative viability (NCI-H727; first compound 0.253 µM): 0.426
- relative viability (NCI-H727; first compound 0.8 µM): 0.383
- relative viability (NCI-H727; first compound 2.53 µM): 0.443
- relative viability (NCI-H727; first compound 8 µM): 0.403
- relative viability (EPLC-272H; first compound 0.08 µM): 0.282
- relative viability (EPLC-272H; first compound 0.253 µM): 0.26
- relative viability (EPLC-272H; first compound 0.8 µM): 0.27
- relative viability (EPLC-272H; first compound 2.53 µM): 0.263
- relative viability (EPLC-272H; first compound 8 µM): 0.233
- relative viability (NCI-H838; first compound 0.08 µM): 0.536
- relative viability (NCI-H838; first compound 0.253 µM): 0.561
- relative viability (NCI-H838; first compound 0.8 µM): 0.482
- relative viability (NCI-H838; first compound 2.53 µM): 0.528
- relative viability (NCI-H838; first compound 8 µM): 0.571
- relative viability (HCC-827; first compound 0.253 µM): 0.538
- relative viability (HCC-827; first compound 0.8 µM): 0.556
- relative viability (HCC-827; first compound 2.53 µM): 0.532
- relative viability (HCC-827; first compound 8 µM): 0.561
- relative viability (NCI-H520; first compound 0.08 µM): 0.632
- relative viability (NCI-H520; first compound 0.253 µM): 0.68
- relative viability (NCI-H520; first compound 0.8 µM): 0.627
- relative viability (NCI-H520; first compound 2.53 µM): 0.601
- relative viability (NCI-H520; first compound 8 µM): 0.54
- relative viability (NCI-H647; first compound 0.08 µM): 0.555
- relative viability (NCI-H647; first compound 0.253 µM): 0.491
- relative viability (NCI-H647; first compound 0.8 µM): 0.476
- relative viability (NCI-H647; first compound 2.53 µM): 0.316
- relative viability (NCI-H647; first compound 8 µM): 0.353
- relative viability (NCI-H596; first compound 0.08 µM): 0.83
- relative viability (NCI-H596; first compound 0.253 µM): 0.763
- relative viability (NCI-H596; first compound 0.8 µM): 0.738
- relative viability (NCI-H596; first compound 2.53 µM): 0.736
- relative viability (NCI-H596; first compound 8 µM): 0.772
- relative viability (BEN; first compound 0.08 µM): 1.17
- relative viability (BEN; first compound 0.253 µM): 1.16
- relative viability (BEN; first compound 0.8 µM): 1.01
- relative viability (BEN; first compound 2.53 µM): 0.984
- relative viability (BEN; first compound 8 µM): 1.29
- relative viability (NCI-H358; first compound 0.08 µM): 0.135
- relative viability (NCI-H358; first compound 0.253 µM): 0.147
- relative viability (NCI-H358; first compound 0.8 µM): 0.137
- relative viability (NCI-H358; first compound 2.53 µM): 0.13
- relative viability (NCI-H358; first compound 8 µM): 0.126
- relative viability (NCI-H2170; first compound 0.08 µM): 0.943
- relative viability (NCI-H2170; first compound 0.253 µM): 0.874
- relative viability (NCI-H2170; first compound 0.8 µM): 0.832
- relative viability (NCI-H2170; first compound 2.53 µM): 0.83
- relative viability (NCI-H2170; first compound 8 µM): 0.857
- relative viability (NCI-H1355; first compound 0.08 µM): 0.382
- relative viability (NCI-H1355; first compound 0.253 µM): 0.428
- relative viability (NCI-H1355; first compound 0.8 µM): 0.411
- relative viability (NCI-H1355; first compound 2.53 µM): 0.39
- relative viability (NCI-H1355; first compound 8 µM): 0.454
- relative viability (NCI-H1792; first compound 0.08 µM): 0.466
- relative viability (NCI-H1792; first compound 0.253 µM): 0.412
- relative viability (NCI-H1792; first compound 0.8 µM): 0.36
- relative viability (NCI-H1792; first compound 2.53 µM): 0.393
- relative viability (NCI-H1792; first compound 8 µM): 0.454
- relative viability (PC-14; first compound 0.253 µM): 0.622
- relative viability (PC-14; first compound 0.8 µM): 0.686
- relative viability (PC-14; first compound 2.53 µM): 0.607
- relative viability (PC-14; first compound 8 µM): 0.62
- relative viability (NCI-H322M; first compound 0.08 µM): 0.402
- relative viability (NCI-H322M; first compound 0.253 µM): 0.505
- relative viability (NCI-H322M; first compound 0.8 µM): 0.538
- relative viability (NCI-H322M; first compound 2.53 µM): 0.546
- relative viability (NCI-H322M; first compound 8 µM): 0.54
- relative viability (NCI-H3122; first compound 0.08 µM): 0.239
- relative viability (NCI-H3122; first compound 0.253 µM): 0.227
- relative viability (NCI-H3122; first compound 0.8 µM): 0.216
- relative viability (NCI-H3122; first compound 2.53 µM): 0.252
- relative viability (NCI-H3122; first compound 8 µM): 0.188
- relative viability (NCI-H1666; first compound 0.08 µM): 0.888
- relative viability (NCI-H1666; first compound 0.253 µM): 0.804
- relative viability (NCI-H1666; first compound 0.8 µM): 0.835
- relative viability (NCI-H1666; first compound 2.53 µM): 0.866
- relative viability (NCI-H1666; first compound 8 µM): 0.787
